Here are results for 16 compounds from patent US12398154B2, “Azaquinazoline pan-KRas inhibitors” (Mirati Therapeutics, Inc., priority 2020, dated 2025).

The test system of test [1] is pERK in MKN1 cells. Briefly: Inhibition of KRas phosphorylation of ERK (Cisbio HTRF pERK assay). The following applies: Homo sapiens, MKN-1, 3 h, read-out: Inhibition (HTRF IC50) of KRas-mediated Phosphorylation of ERK, MKN1. In general terms: In TR-FRET formats the signal depends on donor and acceptor labels being close together.
In test [2] the test system is phospho-ERK in AsPC-1 (G12D) cells. Briefly: Inhibition of KRas-mediated phosphorylation of ERK (in-cell western). Type of test: cell-based. The note with it: Homo sapiens, ASPC1, 3 h, 3 hours compound, phospho-ERK normalized to GAPDH. On the procedure:
(§1) Diluted compounds were then added in a final concentration of 0.5% DMSO. After 3 hours, 50 μL of 4.0% formaldehyde was added and the plates incubated at room temperature for 20 minutes. The plates were then dumped and permeabilized with 150 μL of ice cold 100% methanol for 10 minutes.
(§2) The amount of phospho-ERK was determined using an antibody specific for the phosphorylated form of ERK and compared to the amount of GAPDH. […] The plates were incubated overnight at 4° C. The plates were washed 3× with 150 uL PBS+0.1% Tween 20.
(§3) The plates were washed 3× with 150 uL PBS+0.1% Tween 20. Plates were imaged dry on a Li-COR Odyssey CLX plate reader.
(§4) The phospho-ERK (Thr202/Tyr204) signal was normalized to the GAPDH signal for each well and percent of DMSO control values were calculated. IC50 values were generated using a 4-parameter fit of the dose response curve.

Test [3] deals with phospho-ERK in NCI-H727 (G12V) cells. The test is described as above. The class given is cell-based. The following applies: Homo sapiens, NCI-H727, 3 h, 3 hours compound, phospho-ERK normalized to GAPDH. On the procedure: as §1, §2, §3, §4
Test [4] concerns phospho-ERK in NCI-H460 (Q61H) cells. The test is described as above. The class given is cell-based. The note with it: Homo sapiens, NCI-H460, 3 h, 3 hours compound, phospho-ERK normalized to GAPDH. The procedure:
as §1, §2, §3, §4

Test [5] concerns the target KRas G12V (Homo sapiens, UniProt P01116, G12V). Briefly: biochemical.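 Also: KRas binding measured by TR-FRET displacement at room temperature, IC50 fitted from percent of control values.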
Description: (§5) The ability of a compound to bind to KRas was measured using a TR-FRET displacement assay. […] After a 60-minute incubation at room temperature, the reaction was measured using a BMG LABTECH CLARIO star Plus via TR-FRET. […] The POC values were fit to a 4-parameter IC50 equation and the IC50 value reported.
The target in test [6] is KRas G12R (Homo sapiens, UniProt P01116, G12R). Briefly: biochemical.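 Also: TR-FRET displacement assay of compound binding to KRas, read after one hour at room temperature, potency from a four-parameter fit of percent-of-control values.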
Description: as §5
The target in test [7] is KRas G12D (Homo sapiens, UniProt P01116, G12D). Briefly: biochemical.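 Also: TR-FRET displacement binding assay on KRas, read after a one-hour incubation at room temperature, IC50 fitted from percent-of-control values.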
Description: as §5
Test [8] concerns pERK in PSN1 cells. Briefly: Inhibition of KRas phosphorylation of ERK (Cisbio HTRF pERK assay). The following applies: Homo sapiens, PSN1, 3 h, read-out: Inhibition (HTRF IC50) of KRas-mediated Phosphorylation of ERK, PSN1.
Test [9] concerns the target KRas G12C (Homo sapiens, UniProt P01116, G12C). Briefly: biochemical.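 Also: binding to KRas assessed by TR-FRET displacement after one hour incubation at room temperature, potency fitted from percent-of-control values.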
Description: as §5
The target of test [10] is KRas G12S (Homo sapiens, UniProt P01116, G12S). Briefly: biochemical.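 Also: TR-FRET displacement binding to KRas, read after one hour incubation at room temperature, IC50 from four-parameter fit of percent of control.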
Description: as §5
In test [11] the target is KRas G12A (Homo sapiens, UniProt P01116, G12A). Briefly: biochemical.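 Also: binding to KRas measured by TR-FRET displacement after one hour at room temperature, IC50 from a four-parameter fit of percent-of-control values.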
Description: as §5
The target of test [12] is KRas WT (Homo sapiens, UniProt P01116). Briefly: biochemical.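 Also: binding to KRas read as TR-FRET displacement after a one-hour room-temperature incubation, IC50 derived from percent-of-control values.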
KRas WT, sequence (P01116 1-169 isoform P01116-2): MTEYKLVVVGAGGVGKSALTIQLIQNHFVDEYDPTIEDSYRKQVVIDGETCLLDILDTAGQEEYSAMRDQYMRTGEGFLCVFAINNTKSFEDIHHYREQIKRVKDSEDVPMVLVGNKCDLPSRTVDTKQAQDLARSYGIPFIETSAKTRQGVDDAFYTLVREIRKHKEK
Description: as §5

KRas G12D, sequence (P01116 1-169 isoform P01116-2 G12D): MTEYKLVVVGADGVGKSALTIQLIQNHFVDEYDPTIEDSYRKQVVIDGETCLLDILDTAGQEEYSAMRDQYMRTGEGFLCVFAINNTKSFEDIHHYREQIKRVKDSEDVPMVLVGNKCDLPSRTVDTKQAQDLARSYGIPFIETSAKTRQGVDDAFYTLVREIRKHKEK
KRas G12R, sequence (P01116 1-169 isoform P01116-2 G12R): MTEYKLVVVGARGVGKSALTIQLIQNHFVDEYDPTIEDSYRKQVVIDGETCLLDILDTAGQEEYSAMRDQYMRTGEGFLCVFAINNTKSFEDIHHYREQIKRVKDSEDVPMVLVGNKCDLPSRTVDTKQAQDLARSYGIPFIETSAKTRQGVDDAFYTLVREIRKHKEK
KRas G12V, sequence (P01116 1-169 isoform P01116-2 G12V): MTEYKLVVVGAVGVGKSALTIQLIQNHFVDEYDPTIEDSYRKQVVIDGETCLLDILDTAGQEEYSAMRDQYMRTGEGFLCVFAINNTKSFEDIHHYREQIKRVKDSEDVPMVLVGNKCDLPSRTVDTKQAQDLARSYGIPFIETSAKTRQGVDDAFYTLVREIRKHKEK
KRas G12C, sequence (P01116 1-169 isoform P01116-2 G12C): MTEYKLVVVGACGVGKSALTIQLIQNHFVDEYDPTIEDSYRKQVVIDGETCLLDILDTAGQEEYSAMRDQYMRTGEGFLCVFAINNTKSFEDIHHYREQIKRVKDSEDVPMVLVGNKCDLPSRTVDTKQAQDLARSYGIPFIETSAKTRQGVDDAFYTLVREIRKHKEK
KRas G12A, sequence (P01116 1-169 isoform P01116-2 G12A): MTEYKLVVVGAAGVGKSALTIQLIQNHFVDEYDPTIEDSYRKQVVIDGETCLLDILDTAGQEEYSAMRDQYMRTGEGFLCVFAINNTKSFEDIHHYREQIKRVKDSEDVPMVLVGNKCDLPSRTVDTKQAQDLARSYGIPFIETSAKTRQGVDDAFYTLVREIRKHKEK
KRas G12S, sequence (P01116 1-169 isoform P01116-2 G12S): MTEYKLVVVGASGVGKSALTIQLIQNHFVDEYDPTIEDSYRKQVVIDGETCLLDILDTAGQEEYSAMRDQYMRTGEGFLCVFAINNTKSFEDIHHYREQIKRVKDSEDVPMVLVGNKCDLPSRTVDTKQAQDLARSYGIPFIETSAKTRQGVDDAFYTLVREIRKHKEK

What is called IC50 is the concentration that inhibits the measured activity by half. On to `C#Cc1c(F)ccc2cc(O)cc(-c3ncc4c(N5CCOC[C@](C)(O)C5)nc(OC[C@@]56CCCN5C[C@H](F)C6)nc4c3F)c12` (single isomer, unassigned) [Example 386], for which the 50% inhibitory concentration (IC50) in test [1] came out at 44 nM; in test [2], 1180 nM; in [3] it was 1020 nM; in test [4] it was 299 nM; in test [5], 5 nM; in test [6], 6 nM. Further, the figures for the IC50 in test [7] and in test [8] were 7 nM and 2.88 µM, respectively.
On to `Oc1cc(-c2ncc3c(N4CCC[C@]5(C4)C[C@H](O)C5)nc(OC[C@@]45CCCN4C[C@H](F)C5)nc3c2F)c2c(F)c(F)ccc2c1` (single isomer, unassigned) [Example 441], for which the IC50 is 6 nM in test [1]; 119 nM in test [2]; 139 nM in test [3]; 70 nM in test [4]; ≤ 2 nM in [5]; ≤ 2 nM in test [6]. Also, the IC50 is 3 nM in test [7] and 2.88 µM in test [8].
Turning to `Oc1cc(-c2ncc3c(N4CCC[C@]5(C4)C[C@@H](O)C5)nc(OC[C@@]45CCCN4C[C@H](F)C5)nc3c2F)c2c(F)c(F)ccc2c1` (single isomer, unassigned) [Example 442], the IC50 in test [1] was 9 nM; in test [2], 134 nM; in [3] it was 234 nM; in test [4], 124 nM; in [5] it was ≤ 2 nM; in test [6] it was ≤ 2 nM. Also, the IC50 in [7] is ≤ 2 nM; in test [8], 2.85 µM.
Take `C#Cc1c(F)ccc2cc(O)cc(-c3ncc4c(N5CCC[C@](C)(O)C5)nc(OC[C@@]56CCCN5C[C@H](F)C6)nc4c3F)c12` [Example 10]: the IC50 in test [1] was 13 nM; in test [2], 297 nM; in [5], ≤ 2 nM; in [6], 3 nM; in test [7], ≤ 2 nM; in test [8], 3.34 µM.
As to `CCc1c(F)ccc2cc(O)cc(-c3ncc4c(N5CCC[C@@](C)(O)C5)nc(OC[C@@H]5C[C@@H](OC(=O)NC)CN5C)nc4c3F)c12` [Example 12, (3R,5S)-5-(((7-(8-ethyl-7-fluoro-3-hydroxy)naphthalen-1-yl)-8-fluoro-4-((R)-3-hydroxy-3-methylpiperidin-1-yl)pyrido[4,3-d]pyrimidin-2-yl)oxy)methyl)-1-methylpyrrolidin-3-yl methylcarbamate], the IC50 in [1] was 26 nM; in [2], 497 nM; in [5], 3 nM; in test [6] it was 4 nM; in [7] it was 3 nM; in test [8], ≥ 10 µM.
For `CCc1c(F)ccc2cc(O)cc(-c3ncc4c(NCc5n[nH]cc5C(N)=O)nc(OC[C@@]56CCCN5C[C@H](F)C6)nc4c3F)c12` [Example 162], the concentration for half-maximal inhibition (IC50) in test [1] is 187 nM; in test [2], 4530 nM; in test [3], 4170 nM; in test [4] it was 6770 nM; in test [5] it was ≤ 2 nM; in test [6] it was 3 nM. For the same compound, the IC50 in test [7] is 31 nM; in [8] it was ≥ 10 µM.
`CCc1c(F)ccc2cc(O)cc(-c3ncc4c(N5CC[C@H](F)[C@@H](O)C5)nc(OC[C@@]56CCCN5C[C@H](F)C6)nc4c3F)c12` [Example 179]: the 50% inhibitory concentration (IC50) stood at 10 nM in test [1]; 785 nM in test [2]; 675 nM in [3]; 274 nM in test [4]; 6.96 µM in test [8].
As to `CCc1c(F)ccc2cc(O)cc(-c3ncc4c(N5C[C@H](O)CC[C@H]5C)nc(OC[C@@]56CCCN5C[C@H](F)C6)nc4c3F)c12` [Example 182], the 50% inhibitory concentration (IC50) in [1] is 5 nM; in [2], 547 nM; in [3], 355 nM; in [4] it was 157 nM; in test [8], 6.9 µM.
In the case of `CCc1c(F)ccc2cc(O)cc(-c3ncc4c(N5CCCC(O)(C(F)(F)F)C5)nc(OC[C@@]56CCCN5C[C@H](F)C6)nc4c3F)c12` (stereo partly drawn) [Example 183], the IC50 was 2 nM in test [1]; 399 nM in [2]; 720 nM in [3]; 137 nM in test [4]; 4.23 µM in [8].
For `CCc1c(F)ccc2cc(O)cc(-c3ncc4c(N5C[C@H](O)CC[C@@H]5C)nc(OC[C@@]56CCCN5C[C@H](F)C6)nc4c3F)c12` [Example 186], the IC50 in [1] was 108 nM; in test [2] it was 1590 nM; in test [3], 1060 nM; in test [4], 592 nM; in test [8], ≥ 10 µM.
Regarding `CCc1c(F)ccc2cc(O)cc(-c3ncc4c(N5CC(O)CC(F)(F)C5)nc(OC[C@@]56CCCN5C[C@H](F)C6)nc4c3F)c12` (stereo partly drawn) [Example 190], the IC50 in test [1] is 11 nM; in test [2] it was 189 nM; in test [3], 272 nM; in [4], 62 nM; in test [5], ≤ 2 nM; in [6], ≤ 2 nM. In addition, the half-maximal inhibitory concentration (IC50) in [8] was determined as 4.99 µM.
On to `CCc1c(F)ccc2cc(O)cc(-c3ncc4c(N5CCC[C@@]6(CNC(=O)C6)C5)nc(OC[C@]56CCCN5C[C@@H](O)C6)nc4c3F)c12` [Example 305, (R)-7-(7-(8-ethyl-7-fluoro-3-hydroxynaphthalen-1-yl)-8-fluoro-2-(((2S,7aR)-2-hydroxytetrahydro-1H-pyrrolizin-7a(5H)-yl)methoxy)pyrido[4,3-d]pyrimidin-4-yl)-2,7-diazaspiro[4.5]decan-3-one], for which the IC50 was ≥ 10000 nM in test [2]; ≥ 10000 nM in test [3]; ≥ 10000 nM in test [4]; 6 nM in test [5]; 14 nM in [6]; 25 nM in test [7].
Consider `CCc1c(F)ccc2cc(O)cc(-c3ncc4c(N5CCCC(CO)C5)nc(OC[C@@]56CCCN5C[C@H](F)C6)nc4c3F)c12` (stereo partly drawn) [Example 306, 5-ethyl-6-fluoro-4-(8-fluoro-2-(((2R,7aS)-2-fluorohexahydro-1H-pyrrolizin-7a-yl)methoxy)-4-(3-(hydroxymethyl)piperidin-1-yl)pyrido[4,3-d]pyrimidin-7-yl)naphthalen-2-ol], for which the concentration for half-maximal inhibition (IC50) is 57 nM in test [1]; 405 nM in [2]; 461 nM in [3]; 306 nM in test [4]; 6.8 µM in [8].
As for `CCc1c(F)ccc2cc(O)cc(-c3ncc4c(NC5CN(C(N)=O)C5)nc(OC[C@@]56CCCN5C[C@H](F)C6)nc4c3F)c12` [Example 310, 3-((7-(8-ethyl-7-fluoro-3-hydroxynaphthalen-1-yl)-8-fluoro-2-(((2R,7aS)-2-fluorohexahydro-1H-pyrrolizin-7a-yl)methoxy)pyrido[4,3-d]pyrimidin-4-yl)amino)azetidine-1-carboxamide], the IC50 was ≥ 10000 nM in test [2]; 3370 nM in test [3]; 3790 nM in test [4]; ≤ 2 nM in [5]; ≤ 2 nM in test [6]; 8 nM in [7].
For `OCC1COCCN(c2nc(OCC34CCCN3CCC4)nc3c(F)c(-c4cc(O)cc5ccc(F)c(F)c45)ncc23)C1` (stereo not drawn) [Example 457, 5,6-difluoro-4-(8-fluoro-2-((hexahydro-1H-pyrrolizin-7a-yl)methoxy)-4-(6-(hydroxymethyl)-1,4-oxazepan-4-yl)pyrido[4,3-d]pyrimidin-7-yl)naphthalen-2-ol], the IC50 in test [3] is 3950 nM; in test [4], 9410 nM; in test [5], 6 nM; in [6] it was 10 nM; in test [7], 31 nM.
As for `CCc1cccc2cc3[nH]ncc3c(-c3ncc4c(N5CCC[C@@](C)(O)C5)nc(OC[C@@]56CCCN5C[C@H](F)C6)nc4c3F)c12` [Example 473, (3R)-1-(7-(5-ethyl-1H-benzo[f]indazol-4-yl)-8-fluoro-2-(((2R,7aS)-2-fluorohexahydro-1H-pyrrolizin-7a-yl)methoxy)pyrido[4,3-d]pyrimidin-4-yl)-3-methylpiperidin-3-ol], the IC50 was 9 nM in test [9]; 320 nM in test [3]; 325 nM in [4]; 8 nM in test [5]; 9 nM in [10]; 14 nM in [6]. For the same compound, the IC50 was 8 nM in test [11], 11 nM in test [7] and 10 nM in test [12].
